SMILES strings stand for the structures.

FP receptor, sequence (P43088 whole entry): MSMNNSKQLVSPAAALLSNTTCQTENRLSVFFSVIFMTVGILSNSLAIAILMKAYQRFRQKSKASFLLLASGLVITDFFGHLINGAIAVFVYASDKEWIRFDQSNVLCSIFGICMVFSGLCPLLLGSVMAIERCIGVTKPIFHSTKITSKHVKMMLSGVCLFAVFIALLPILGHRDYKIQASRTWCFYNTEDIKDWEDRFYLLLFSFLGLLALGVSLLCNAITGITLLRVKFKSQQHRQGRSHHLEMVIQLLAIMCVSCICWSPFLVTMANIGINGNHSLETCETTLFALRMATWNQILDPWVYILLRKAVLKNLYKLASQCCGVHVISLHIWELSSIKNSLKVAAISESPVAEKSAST

The assay has as its target FP receptor (Homo sapiens (Human), UniProt P43088). Kind of assay: In vitro test of inhibition of human FP receptor activity (PGF2α-induced calcium flux in FP-expressing CHEM1 cells). The conditions noted are these: PGF2α 2 nM, some mean values of multiple determinations. The format is cell-based. As for the experimental part:
B-1. In Vitro Test of Inhibition of Human FP Receptor Activity
For the characterization of test substances in respect of FP antagonism, PGF2α-induced calcium flux in FP-expressing CHEM1 cells (Millipore, HTS093C) was used.
10 μl of the prediluted substance solution are added to the Fluo-8-laden cells and incubated at 37° C., 5% CO2 for 10 minutes. The FP receptor is activated by adding 40 μl of 2 nM (final concentration) PGF2α in calcium-free Tyrode, 2 mM CaCl2, 0.002% SmartBlock, and the calcium flux is determined by measuring the fluorescence at ex. 470 nm/[…].
Table 1 below lists the IC50 values from this assay for individual working examples of the invention (some as mean values from multiple independent individual determinations): […]
As to `Cc1c(N2CCCCC2)nc2ccc(Br)cc2c1C(=O)NCC(CC(=O)O)c1c(F)cccc1Cl` (racemic) [Example 1, (+/−)-4-({[6-Bromo-3-methyl-2-(piperidin-1-yl)quinolin-4-yl]carbonyl}amino)-3-(2-chloro-6-fluorophenyl)butanoic acid], the IC50 was determined as 26 nM. Take `Cc1c(NCCc2ccccc2)nc2ccc(Br)cc2c1C(=O)NCC(CC(=O)O)c1c(F)cccc1Cl` (racemic) [Example 4, (+/−)-4-[({6-Bromo-3-methyl-2-[(2-phenylethyl)amino]quinolin-4-yl}carbonyl)amino]-3-(2-chloro-6-fluorophenyl)butanoic acid]: the IC50 stood at 170 nM. For `Cc1c(N2CCCCC2)nc2ccc(Br)cc2c1C(=O)NCC(CCC(=O)O)c1cc(F)ccc1Cl` (racemic) [Example 5, (+/−)-5-({[6-Bromo-3-methyl-2-(piperidin-1-yl)quinolin-4-yl]carbonyl}amino)-4-(2-chloro-5-fluorophenyl)pentanoic acid], the IC50 worked out at 9.4 nM.

Turning to `Cc1c(N2CCC(F)(F)CC2)nc2ccc(Br)cc2c1C(=O)NCC(CCC(=O)O)c1cc(F)ccc1Cl` (racemic) [Example 8, (+/−)-5-({[6-Bromo-2-(4,4-difluoropiperidin-1-yl)-3-methylquinolin-4-yl]carbonyl}amino)-4-(2-chloro-5-fluorophenyl)pentanoic acid], the IC50 is 58 nM. On to `Cc1c(N2CCOCC2)nc2ccc(Br)cc2c1C(=O)NCC(CCC(=O)O)c1cc(F)ccc1Cl` (racemic) [Example 9, (+/−)-5-({[6-Bromo-3-methyl-2-(morpholin-4-yl)quinolin-4-yl]carbonyl}amino)-4-(2-chloro-5-fluorophenyl)pentanoic acid], for which the IC50 came out at 290 nM. On to `Cc1c(N2CC=CCC2)nc2ccc(Br)cc2c1C(=O)NCC(CCC(=O)O)c1cc(F)ccc1Cl` (racemic) [Example 10, (+/−)-5-({[6-Bromo-2-(3,6-dihydropyridin-1(2H)-yl)-3-methylquinolin-4-yl]carbonyl}amino)-4-(2-chloro-5-fluorophenyl)pentanoic acid], for which the IC50 is 36 nM. `Cc1c(N2CCSCC2)nc2ccc(Br)cc2c1C(=O)NCC(CCC(=O)O)c1cc(F)ccc1Cl` (racemic) [Example 11, (+/−)-5-({[6-Bromo-3-methyl-2-(thiomorpholin-4-yl)quinolin-4-yl]carbonyl}amino)-4-(2-chloro-5-fluorophenyl)pentanoic acid]: the IC50 was 25 nM. As for `Cc1c(N2C[C@@H](C)O[C@@H](C)C2)nc2ccc(Br)cc2c1C(=O)NCC(CCC(=O)O)c1cc(F)ccc1Cl` (mixture of isomers) [Example 12, (+/−)-5-[({6-Bromo-2-[cis-2,6-dimethylmorpholin-4-yl]-3-methylquinolin-4-yl}carbonyl)amino]-4-(2-chloro-5-fluorophenyl)pentanoic acid], the figure is 220 nM. As for `Cc1c(N2CCCC2)nc2ccc(Br)cc2c1C(=O)NCC(CCC(=O)O)c1cc(F)ccc1Cl` (racemic) [Example 13, (+/−)-5-({[6-Bromo-3-methyl-2-(pyrrolidin-1-yl)quinolin-4-yl]carbonyl}amino)-4-(2-chloro-5-fluorophenyl)pentanoic acid], the IC50 turned out to be 18 nM. Take `Cc1c(N2CCCO2)nc2ccc(Br)cc2c1C(=O)NCC(CCC(=O)O)c1cc(F)ccc1Cl` (racemic) [Example 14, (+/−)-5-({[6-Bromo-3-methyl-2-(1,2-oxazolidin-2-yl)quinolin-4-yl]carbonyl}amino)-4-(2-chloro-5-fluorophenyl)pentanoic acid]: the IC50 is 70 nM. As to `Cc1c(N2CC=CC2)nc2ccc(Br)cc2c1C(=O)NCC(CCC(=O)O)c1cc(F)ccc1Cl` (racemic) [Example 15, (+/−)-5-({[6-Bromo-2-(2,5-dihydro-1H-pyrrol-1-yl)-3-methylquinolin-4-yl]carbonyl}amino)-4-(2-chloro-5-fluorophenyl)pentanoic acid], the IC50 came to 48 nM.

`Cc1c(N2CCC(C)CC2)nc2ccc(Br)cc2c1C(=O)NCC(CCC(=O)O)c1cc(F)ccc1Cl` (racemic) [Example 18, (+/−)-5-({[6-Bromo-3-methyl-2-(4-methylpiperidin-1-yl)quinolin-4-yl]carbonyl}amino)-4-(2-chloro-5-fluorophenyl)pentanoic acid]: the half-maximal inhibitory concentration (IC50) was 80 nM. As for `Cc1c(N2CCSCC2)nc2ccc(Br)cc2c1C(=O)NCC(CCC(=O)O)c1ccccc1Cl` (racemic) [Example 25, (+/−)-5-({[6-Bromo-3-methyl-2-(thiomorpholin-4-yl)quinolin-4-yl]carbonyl}amino)-4-(2-chlorophenyl)pentanoic acid], the IC50 amounted to 22 nM. Next, `Cc1c(N2CCC(F)(F)CC2)nc2ccc(Br)cc2c1C(=O)NCC(CCC(=O)O)c1ccccc1Cl` (racemic) [Example 28, (+/−)-5-({[6-Bromo-2-(4,4-difluoropiperidin-1-yl)-3-methylquinolin-4-yl]carbonyl}amino)-4-(2-chlorophenyl)pentanoic acid]: 31 nM; `Cc1c(N2CC=CCC2)nc2ccc(Br)cc2c1C(=O)NCC(CCC(=O)O)c1ccccc1Cl` (racemic) [Example 29, (+/−)-5-({[6-Bromo-2-(3,6-dihydropyridin-1(2H)-yl)-3-methylquinolin-4-yl]carbonyl}amino)-4-(2-chlorophenyl)pentanoic acid]: 22 nM. As for `Cc1c(N2CCCCO2)nc2ccc(Br)cc2c1C(=O)NCC(CCC(=O)O)c1ccccc1Cl` (racemic) [Example 32, (+/−)-5-({[6-Bromo-3-methyl-2-(1,2-oxazinan-2-yl)quinolin-4-yl]carbonyl}amino)-4-(2-chlorophenyl)pentanoic acid], the IC50 was found to be 48 nM. Regarding `Cc1c(N2CCC(F)(F)C2)nc2ccc(Br)cc2c1C(=O)NCC(CCC(=O)O)c1ccccc1Cl` (racemic) [Example 37, (+/−)-5-({[6-Bromo-2-(3,3-difluoropyrrolidin-1-yl)-3-methylquinolin-4-yl]carbonyl}amino)-4-(2-chlorophenyl)pentanoic acid], the IC50 stood at 22 nM. In the case of `Cc1c(N2CCCO2)nc2ccc(Br)cc2c1C(=O)NCC(CCC(=O)O)c1ccccc1Cl` (racemic) [Example 38, (+/−)-5-({[6-Bromo-3-methyl-2-(1,2-oxazolidin-2-yl)quinolin-4-yl]carbonyl}amino)-4-(2-chlorophenyl)pentanoic acid], the IC50 came to 110 nM. In the case of `Cc1c(N2CCCC(C)(C)C2)nc2ccc(Br)cc2c1C(=O)NCC(CCC(=O)O)c1ccccc1Cl` (racemic) [Example 42, (+/−)-5-({[6-Bromo-2-(3,3-dimethylpiperidin-1-yl)-3-methylquinolin-4-yl]carbonyl}amino)-4-(2-chlorophenyl)pentanoic acid], the IC50 was determined as 130 nM.

For `Cc1c(N2CCCC(F)(F)C2)nc2ccc(Br)cc2c1C(=O)NCC(CCC(=O)O)c1ccccc1Cl` (racemic) [Example 50, (+/−)-5-({[6-Bromo-2-(3,3-difluoropiperidin-1-yl)-3-methylquinolin-4-yl]carbonyl}amino)-4-(2-chlorophenyl)pentanoic acid], the IC50 was found to be 3 nM. Consider `Cc1c(N2CCN(C)CC2)nc2ccc(Br)cc2c1C(=O)NCC(CCC(=O)O)c1ccccc1Cl` (racemic) [Example 54, (+/−)-5-({[6-Bromo-3-methyl-2-(4-methylpiperazin-1-yl)quinolin-4-yl]carbonyl}amino)-4-(2-chlorophenyl)pentanoic acid], for which the IC50 stood at 850 nM.

Regarding `CCC1CCCN(c2nc3ccc(Br)cc3c(C(=O)NCC(CCC(=O)O)c3ccccc3Cl)c2C)C1` (racemic) [Example 57, (+/−)-5-[({6-Bromo-2-[3-ethylpiperidin-1-yl]-3-methylquinolin-4-yl}carbonyl)amino]-4-(2-chlorophenyl)pentanoic acid], the IC50 stood at 0.84 nM. For `Cc1c(N2C[C@@H](F)[C@@H](F)C2)nc2ccc(Br)cc2c1C(=O)NCC(CCC(=O)O)c1ccccc1Cl` (mixture of isomers) [Example 70, (+/−)-5-[({6-Bromo-2-[cis-3,4-difluoropyrrolidin-1-yl]-3-methylquinolin-4-yl}carbonyl)amino]-4-(2-chlorophenyl)pentanoic acid], the IC50 came to 16 nM. Turning to `Cc1c(N2CC(F)(F)C(F)(F)C2)nc2ccc(Br)cc2c1C(=O)NCC(CCC(=O)O)c1ccccc1Cl` (racemic) [Example 72, (+/−)-5-({[6-Bromo-3-methyl-2-(3,3,4,4-tetrafluoropyrrolidin-1-yl)quinolin-4-yl]carbonyl}amino)-4-(2-chlorophenyl)pentanoic acid], the IC50 worked out at 80 nM. For the compound `Cc1c(N2CC3CC(C3)C2)nc2ccc(Br)cc2c1C(=O)NCC(CCC(=O)O)c1ccccc1Cl` (racemic) [Example 73, (+/−)-5-[({2-[3-Azabicyclo[3.1.1]hept-3-yl]-6-bromo-3-methylquinolin-4-yl}carbonyl)amino]-4-(2-chlorophenyl)pentanoic acid], the IC50 was 48 nM. Consider `Cc1c(N2CC3CCC(C3)C2)nc2ccc(Br)cc2c1C(=O)NCC(CCC(=O)O)c1ccccc1Cl` (racemic) [Example 74, (+/−)-5-[({2-[3-Azabicyclo[3.2.1]oct-3-yl]-6-bromo-3-methylquinolin-4-yl}carbonyl)amino]-4-(2-chlorophenyl)pentanoic acid], for which the IC50 was found to be 170 nM. On to `Cc1c(N2CC(F)(F)C2)nc2ccc(Br)cc2c1C(=O)NCC(CCC(=O)O)c1ccccc1Cl` (racemic) [Example 75, (+/−)-5-({[6-Bromo-2-(3,3-difluoroazetidin-1-yl)-3-methylquinolin-4-yl]carbonyl}amino)-4-(2-chlorophenyl)pentanoic acid], for which the IC50 was determined as 120 nM.

Source of the values: patent US11149018B2, “Substituted N-arylethyl-2-aminoquinoline-4-carboxamides and use thereof” (Bayer Aktiengesellschaft, priority 2017, dated 2021).
